In patent publication US6391329B1, “Insect pest control method” (Earth Chemical Co., Ltd., priority 1994, dated 2002):

Tests used:
[1] = Vapor pressure measurement of pyrethroid compounds with the vapor pressure measuring apparatus
[2] = Vapor pressure at 30° C. on the cox diagram; format: physicochemical
Procedure: Compounds which are hard to vaporize at normal temperature can be used in the present invention as a pesticidal component. Those having a vapor pressure […] than 1×10^−7 mmHg at 30° C. and a boiling point of not lower than 120° C./1 mmHg are preferred. It should be noted that the range of vapor pressure as referred to herein is the range at 30° C. on the vapor pressure vs. temperature plot in the cox diagram hereinafter described.
The results of our study have made it possible to suppose or know the vapor pressure at a target temperature by utilizing the cox diagram only if at least one found value is available. The aforesaid problem can thus be solved.
The cox diagram as used herein is the straight line or a group of the straight lines obtained by plotting log P as ordinate and t/(t+C) as abscissa on a graph.

[3] = system: Northern house mosquito (female adult); test: Insecticidal test in acrylic resin cylinder, air blown through impregnated honeycomb carrier (Example 1); format: in vivo; details: 500 mg preparation; for number of knockdowns: 26 to 30° C.
Text: Testing apparatus 1 shown in FIG. 1 comprising acrylic resin cylinder 4 was used. Twenty of northern house mosquitos (female adult) were put in the space partitioned with insect nets 2, and blower 3 was set at the bottom of testing apparatus 1. Preparation-retaining material 5 comprising a honeycomb carrier impregnated with a preparation was fitted in at the lower part of cylinder 4 and above blower 3. Air was blown from the bottom of cylinder 4 and passed through the preparation-retaining material 5 to release the pesticidal component from the preparation, and the insecticidal effect was examined using apparatus 1 for insect control of the present invention.
The number of knockdowns of the mosquitos was counted for every 30 seconds during 10 minutes and 30 seconds following the start of the testing. The mosquitos knocked down were transferred to a clean plastic cup (volume: about 500 ml) containing a cotton wad impregnated with a 1% aqueous sugar solution as feed, and the cup was covered and maintained under constant temperature conditions of about 25° C. […]
The preparation-retaining material used herein was prepared as follows. A honeycomb structure (70×70×15 mm) comprising a laminate of corrugated boards (single-sided) made of bleached kraft paper having a basis weight of 80 g/m^2 (height of the corrugation: about 2 mm) was uniformly impregnated with 3 ml of an acetone solution containing about 500 mg of preparation. The impregnated carrier was set in the apparatus after acetone vaporized.

[4] = system: sensitive smokybrown cockroaches (Periplaneta fuliginosa); test: Cockroach knockdown and mortality in 24 m^3 test room (Example 3); format: in vivo; details: 1.0 g pesticidal component
Procedure: (§1) The insect pest control apparatus of the present invention was put at the center of the floor of the room, and two cups each containing 20 cockroaches were placed at each of the two opposite corners of the floor. The pesticidal component shown in Table 5 below was released from the apparatus for consecutive 24 hours. As test insects, sensitive German cockroaches (Blatella germanica) and sensitive smokybrown cockroaches (Periplaneta fuliginosa) were used.
(§2) The preparation-retaining material used was prepared by impregnating a honeycomb carrier (70×70×15 mm; FIG. 3) with 1.0 g of the pesticidal component.

[5] = system: sensitive German cockroaches (Blatella germanica); test: as above; format: in vivo; details: 1.0 g pesticidal component
Procedure: as §1, §2

SMILES	Vapor Pressure ([1]; 20° C.)	Vapor Pressure ([1]; 25° C.)	Vapor Pressure ([1]; 30° C.)	Vapor Pressure ([1]; 35° C.)	Vapor Pressure ([1]; 40° C.)	Vapor Pressure at 30° C. [2]	number of knockdowns ([3]; 0.5 min)	number of knockdowns ([3]; 1.0 min)	number of knockdowns ([3]; 1.5 min)	number of knockdowns ([3]; 2.0 min)	number of knockdowns ([3]; 2.5 min)	number of knockdowns ([3]; 3.0 min)	number of knockdowns ([3]; 3.5 min)	Mortality (%) ([3]; 24 hrs.)	Mortality (%) ([3]; 48 hrs.)	other results
CC(C)=CC1C(C(=O)OCc2coc(Cc3ccccc3)c2)C1(C)C (mixture of isomers) [resmethrin, (5-benzyl-3-furyl)methyl d-cis/trans-chrysanthemate]	3.5 × 10^−6 mmHg	7.1 × 10^−6 mmHg	1.7 × 10^−5 mmHg	2.8 × 10^−5 mmHg	5.6 × 10^−5 mmHg	1.7 × 10^−5 mmHg	0	0	0	0	2	2	4	58	79	number of knockdowns ([3]; 4.0 min): 5; number of knockdowns ([3]; 4.5 min): 5; number of knockdowns ([3]; 5.0 min): 7; number of knockdowns ([3]; 5.5 min): 7; number of knockdowns ([3]; 6.0 min): 8; number of knockdowns ([3]; 6.5 min): 10; number of knockdowns ([3]; 7.0 min): 12; number of knockdowns ([3]; 7.5 min): 13; number of knockdowns ([3]; 8.0 min): 16; number of knockdowns ([3]; 8.5 min): 17; number of knockdowns ([3]; 9.0 min): 19
CC(C)=CC1C(C(=O)OCc2cccc(Oc3ccccc3)c2)C1(C)C (mixture of isomers) [phenothrin, 3-phenoxybenzyl-d-cis/trans-chrysanthemate]	1.2 × 10^−6 mmHg	2.2 × 10^−6 mmHg	4.3 × 10^−6 mmHg	7.7 × 10^−6 mmHg	1.4 × 10^−5 mmHg											
C=CCC1=C(C)C(OC(=O)C2C(C)(C)C2(C)C)CC1=O (racemic) [terallethrin, dl-3-allyl-2-methyl-4-oxo-2-cyclopentenyl dl-cis/trans-2,2,3,3-tetramethylcyclopropanecarboxylate]	2.2 × 10^−4 mmHg	4.2 × 10^−4 mmHg	6.6 × 10^−4 mmHg	1.2 × 10^−3 mmHg	4.8 × 10^−3 mmHg	6.6 × 10^−4 mmHg	0	0	4	15	17			88	100	
CC1(C)C(C=C(Cl)Cl)C1C(=O)OCc1cccc(Oc2ccccc2)c1 (mixture of isomers) [permethrin, 3-phenoxybenzyl-dl-cis/trans-3-(2,2-dichlorovinyl)-2,2-dimethyl-1-cyclopropanecarboxylate]	5.5 × 10^−7 mmHg	1.1 × 10^−6 mmHg	1.9 × 10^−6 mmHg	3.6 × 10^−6 mmHg	6.3 × 10^−6 mmHg											
CC1(C)C(C=C(Cl)Cl)C1C(=O)OCc1c(F)c(F)cc(F)c1F (stereo not drawn) [benfluthrin, d-trans-2,3,5,6-tetrafluorobenzyl-3-(2,2-dichlorovinyl)-2,2-dimethyl-1-cyclopropanecarboxylate]	8.3 × 10^−5 mmHg	1.5 × 10^−4 mmHg	2.7 × 10^−4 mmHg	4.0 × 10^−4 mmHg	8.5 × 10^−4 mmHg											Knockdown Ratio (%) ([4]; 1 hr): 0%; Knockdown Ratio (%) ([4]; 2 hrs): 0%; Knockdown Ratio (%) ([4]; 4 hrs): 5.0%; Knockdown Ratio (%) ([4]; 24 hrs): 6.3%; Mortality at 48 hrs (%) ([4]; 48 hrs): 7.5%; Knockdown Ratio (%) ([5]; 1 hr): 0%; Knockdown Ratio (%) ([5]; 2 hrs): 0%; Knockdown Ratio (%) ([5]; 4 hrs): 0%; Knockdown Ratio (%) ([5]; 24 hrs): 87.5%; Mortality at 48 hrs (%) ([5]; 48 hrs): 97.5%
CC(C)=CC1C(C(=O)OCN2C(=O)C3=C(CCCC3)C2=O)C1(C)C (stereo not shown) [tetramethrin]	2.4 × 10^−6 mmHg	4.4 × 10^−6 mmHg	8.5 × 10^−6 mmHg	1.7 × 10^−5 mmHg	3.2 × 10^−5 mmHg											
C=CCC1=C(C)C(OC(=O)C2C(C=C(C)C)C2(C)C)CC1=O (stereo not drawn) [esbiol, d-3-allyl-2-methyl-4-oxo-2-cyclopentenyl d-trans-chrysanthemate]						1.2 × 10^−4 mmHg	0	0	1	3	10	17	19	70	78	number of knockdowns ([3]; 4.0 min): 22
CC(C)=CC1C(C(=O)OC(C#N)c2cccc(Oc3ccccc3)c2)C1(C)C (racemic) [cyphenothrin, (±) αa-cyano-3-phenoxybenzyl(+)-cis/trans-chrysanthemate]	9.2 × 10^−7 mmHg	1.9 × 10^−6 mmHg	3.6 × 10^−6 mmHg	6.6 × 10^−6 mmHg	1.3 × 10^−5 mmHg											
CC(C)=CC1C(C(=O)OCN2C(=O)C3=C(CCCC3)C2=O)C1(C)C (mixture of isomers) [phthalthrin, (1,3,4,5,6,7-hexahydro-1,3-dioxo-2-isoindolyl)methyl dl-cis/trans-chrysanthemate]	3.5 × 10^−8 mmHg	6.6 × 10^−8 mmHg	1.2 × 10^−7 mmHg	2.2 × 10^−7 mmHg	3.8 × 10^−7 mmHg											
C#CCC1=C(C)C(OC(=O)C2C(C=C(C)C)C2(C)C)CC1=O (mixture of isomers) [prallethrin, (+)-2-methyl-4-oxo-3-(2-propynyl)-2-cyclopentenyl (+)-cis/trans-chrysanthemate]	3.5 × 10^−5 mmHg	6.9 × 10^−5 mmHg	1.3 × 10^−4 mmHg	2.4 × 10^−4 mmHg	4.4 × 10^−4 mmHg	1.3 × 10^−4 mmHg	0	0	1	10	15	21	22	86	100	
C#CCc1ccc(COC(=O)C2C(C=C(C)C)C2(C)C)o1 (mixture of isomers) [furamethrin, 5-propargyl-2-furylmethyl d-cis/trans-chrysanthemate]	1.3 × 10^−4 mmHg	2.2 × 10^−4 mmHg	4.5 × 10^−4 mmHg	7.1 × 10^−4 mmHg	1.4 × 10^−3 mmHg	4.5 × 10^−4 mmHg	0	0	0	1	3	8	18	100	100	number of knockdowns ([3]; 4.0 min): 19
